US20150166523A1, “BRANCHED CHAIN ALKYL HETEROAROMATIC RING DERIVATIVE” (TAISHO PHARMACEUTICAL CO., LTD., priority 2012, published 2015)

Key:
[1] = target: T1, orexin-2 receptor (hOX2R) (Homo sapiens, UniProt O43614); test: Measurement of orexin antagonistic activity (intracellular Ca2+ fluorescence, FDSS) on hOX2R; assay type: cell-based; conditions: CHO cells forcibly expressing hOX2R; Fluo-4AM; ligand peptide (substituted human orexin-A) 3 nM; compound preincubated 30 minutes; read-out: IC50 Value OX2
T1 construct: expressed in transfected cells; host or cells: Chinese hamster ovary (CHO) cells
T1 sequence (O43614 1-444): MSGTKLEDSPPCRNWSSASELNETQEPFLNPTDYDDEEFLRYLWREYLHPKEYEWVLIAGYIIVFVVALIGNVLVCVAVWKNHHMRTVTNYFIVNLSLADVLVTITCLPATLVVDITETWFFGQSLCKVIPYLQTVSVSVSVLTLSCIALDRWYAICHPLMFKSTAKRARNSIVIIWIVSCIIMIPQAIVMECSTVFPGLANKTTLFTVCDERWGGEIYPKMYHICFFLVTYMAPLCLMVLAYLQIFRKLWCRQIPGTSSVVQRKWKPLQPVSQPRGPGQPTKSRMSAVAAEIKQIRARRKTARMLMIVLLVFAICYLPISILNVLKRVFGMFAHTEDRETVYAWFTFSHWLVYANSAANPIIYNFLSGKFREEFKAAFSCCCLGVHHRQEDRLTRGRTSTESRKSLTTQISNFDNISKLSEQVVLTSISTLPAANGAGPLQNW
Procedure: (§1) The antagonistic activities of the test compounds on human orexin-1 receptor (hOX1R) and orexin-2 receptor (hOX2R) were measured by modifying from the method described in literature (Toshikatsu Okumura et al., Biochemical and Biophysical Research Communications, 280, 976-981, 2001). Chinese hamster ovary (CHO) cells forcibly expressing the hOX1R and hOX2R were seeded into a 96 well Black clear bottom plate (Nunc) at 20,000 cells per well, which were cultured in Ham's F-12 medium containing 0.1 mM MEM non-essential amino acids, 0.5 mg/mL G418, 10% fetal bovine serum (all by Invitrogen) for 16 hours under the conditions of 37° C., 5% CO2. After removing the medium, 100 μL of 0.5 μM Fluo-4AM ester (Dojin) in an assay buffer (25 mM HEPES (Dojin), Hank's balanced salt solution (Invitrogen), 0.1% bovine serum albumin, 2.5 mM probenecid, 200 μg/mL Amaranth (all by Sigma-Aldrich), pH 7.4) was added and the cells were incubated for 60 minutes at 37° C., 5% CO2. After removing the assay buffer containing fluo-4AM ester, the test compound was dissolved in dimethyl sulfoxide to be 10 mM and diluted with the assay buffer, 150 μL, of which was added and incubated for 30 minutes.
(§2) The reaction was measured for the fluorescence intensity of each well every second for 3 minutes using Functional Drug Screening System (FDSS; Hamamatsu Photonics K.K.), and the antagonistic activity was determined using the maximum fluorescence intensity as the indicator of intracellular Ca2+ concentration.

[2] = target: T2, human orexin-1 receptor (hOX1R) (Homo sapiens, UniProt O43613); test: Measurement of orexin antagonistic activity (intracellular Ca2+ fluorescence, FDSS) on hOX1R; assay type: cell-based; conditions: CHO cells forcibly expressing hOX1R; Fluo-4AM; ligand peptide (substituted human orexin-A) 300 pM; compound preincubated 30 minutes; read-out: IC50 Value OX1
T2 construct: expressed in transfected cells; host or cells: Chinese hamster ovary (CHO) cells
T2 sequence (O43613 1-425): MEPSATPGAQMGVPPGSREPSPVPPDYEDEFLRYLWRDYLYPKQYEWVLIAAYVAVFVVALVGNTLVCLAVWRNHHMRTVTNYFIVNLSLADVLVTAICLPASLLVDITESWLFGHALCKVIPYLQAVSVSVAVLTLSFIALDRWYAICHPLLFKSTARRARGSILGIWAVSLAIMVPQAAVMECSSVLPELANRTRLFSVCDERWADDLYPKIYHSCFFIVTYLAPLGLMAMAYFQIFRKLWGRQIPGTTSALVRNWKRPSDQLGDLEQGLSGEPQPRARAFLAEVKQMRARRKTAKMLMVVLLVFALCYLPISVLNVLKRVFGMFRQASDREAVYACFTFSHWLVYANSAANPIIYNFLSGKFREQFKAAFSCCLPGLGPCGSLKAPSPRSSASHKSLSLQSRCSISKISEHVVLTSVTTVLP
Procedure: as §1, §2

| SMILES | IC50 [1] | IC50 [2] |
| --- | --- | --- |
| CCN(C(=O)c1cc(F)ccc1-n1nccn1)[C@@H](C)Cn1cc(-c2ccc(F)cn2)cn1 [Example 36, N-Ethyl-5-fluoro-N-{(2S)-1-[4-(5-fluoropyridin-2-yl)-1H-pyrazol-1-yl]propan-2-yl}-2-(2H-1,2,3-triazol-2-yl) benzamide] | 214 nM | 6.8 nM |
| COCCN(C(=O)c1cc(C)ccc1-n1nccn1)[C@@H](C)Cn1ccc(-c2ccc(F)cc2)n1 [Example 39, N-{(2S)-1-[3-(4-Fluorophenyl)-1H-pyrazol-1-yl]propan-2-yl}-N-(2-methoxyethyl)-5-methyl-2-(2H-1,2,3-triazol-2-yl)benzamide] | 5.5 nM | 1.2 nM |
| COCCN(C(=O)c1cc(C)ccc1-n1nccn1)[C@@H](C)Cn1ccc(-c2ccc(F)cn2)n1 [Example 40, N-{(2S)-1-[3-(5-Fluoropyridin-2-yl)-1H-pyrazol-1-yl]propan-2-yl]}-N-(2-methoxyethyl-5-methyl-2-(2H-1,2,3-triazol-2-yl)benzamide] | 12.4 nM | 1.4 nM |
| Cc1ccc(-n2nccn2)c(C(=O)N(CCO)[C@@H](C)Cn2cc(-c3ccc(F)cn3)cn2)c1 [Example 41, N-{(2S)-1-[4-(5-Fluoropyridin-2-yl)-1H-pyrazol-1-yl]propan-2-yl}-N-(2-hydroxyethyl)-5-methyl-2-(2H-1,2,3-triazol-2-yl)benzamide] | 86.3 nM | 30.9 nM |
| Cc1ccc(-n2nccn2)c(C(=O)N(CCO)[C@@H](C)Cn2cc(-c3ccc(F)cc3)cn2)c1 [Example 43, N-{(2S)-1-[4-(4-Fluorophenyl)-1H-pyrazol-1-yl]propan-2-yl}-N-(2-hydroxyethyl)-5-methyl-2-(2H-1,2,3-triazol-2-yl)benzamide] | 13.6 nM | 3.5 nM |
| Cc1ccc(-n2nccn2)c(C(=O)N(CCO)[C@@H](C)Cn2ccc(-c3ccc(F)cn3)n2)c1 [Example 44, N-{(2S)-1-[3-(5-Fluoropyridin-2-yl)-1H-pyrazol-1-yl]propan-2-yl}-N-(2-hydroxyethyl)-5-methyl-2-(2H-1,2,3-triazol-2-yl)benzamide] | 25.9 nM | 1.3 nM |
| CCN(C(=O)c1cc(C)ccc1-c1ncccn1)[C@@H](C)Cc1noc(-c2ccc(F)cn2)n1 [Example 48, N-Ethyl-N-{(2S)-1-[5-(5-fluoropyridin-2-yl)-1,2,4-oxadiazol-3-yl]propan-2-yl}-5-methyl-2-(pyrimidin-2-yl)benzamide] | 28.2 nM | 0.9 nM |
| CCN(C(=O)c1cc(F)ccc1-n1nccn1)[C@@H](C)Cc1noc(-c2ccc(F)cc2)n1 [Example 50, N-Ethyl-5-fluoro-N-{(2S)-1-[5-(4-fluorophenyl)-1,2,4-oxadiazol-3-yl]propan-2-yl}-2-(2H-1,2,3-triazol-2-yl) benzamide] | 16.8 nM | 0.8 nM |
| CCN(C(=O)c1ccccc1-n1nccn1)[C@@H](C)Cc1noc(-c2ccc(F)cc2)n1 [Example 51, N-Ethyl-N-{(2S)-1-[5-(4-fluorophenyl)-1,2,4-oxadiazol-3-yl]propan-2-yl}-2-(2H-1,2,3-triazol-2-yl)benzamide] | 9.3 nM | 0.2 nM |
| CCN(C(=O)c1ccccc1-c1ncccn1)[C@@H](C)Cc1noc(-c2ccc(F)cc2)n1 [Example 54, N-Ethyl-N-{(2S)-1-[5-(4-fluorophenyl)-1,2,4-oxadiazol-3-yl]propan-2-yl}-2-(pyrimidin-2-yl)benzamide] | 75.7 nM | 2 nM |
| CCN(C(=O)c1cc(C)ccc1-c1ncccn1)[C@@H](C)Cc1noc(-c2ccc(F)cc2)n1 [Example 55, N-Ethyl-N-{(2S)-1-[5-(4-fluorophenyl)-1,2,4-oxadiazol-3-yl]propan-2-yl}-5-methyl-2-(pyrimidin-2-yl)benzamide] | 9.4 nM | 1.4 nM |
| CCN(C(=O)c1ccccc1-n1nccn1)[C@@H](C)Cc1noc(-c2ccc(F)cn2)n1 [Example 56, N-Ethyl-N-{(2S)-1-[5-(5-fluoropyridin-2-yl)-1,2,4-oxadiazol-3-yl]propan-2-yl}-2-(2H-1,2,3-triazol-2-yl)benzamide] | 602 nM | 5 nM |

Next, values leading:

| IC50 [1] | IC50 [2] | SMILES |
| --- | --- | --- |
| 62.8 nM | 3.4 nM | CCN(C(=O)c1cc(C)ccc1-c1ncccn1)[C@@H](C)Cn1cc(-c2ccc(F)cn2)cn1 [Example 35, N-Ethyl-N-{(2S)-1-[4-(5-fluoropyridin-2-yl)-1H-pyrazol-1-yl]propan-2-yl}-5-methyl-2-(pyrimidin-2-yl)benzamide] |
| 83.1 nM | 7.1 nM | CCN(C(=O)c1cc(Cl)ccc1-c1ncccn1)[C@@H](C)Cn1cc(-c2ccc(F)cn2)cn1 [Example 37, 5-Chloro-N-ethyl-N-{(2S)-1-[4-(5-fluoropyridin-2-yl)-1H-pyrazol-1-yl]propan-2-yl}-2-(pyrimidin-2-yl) benzamide] |
| 351 nM | 25.5 nM | COCCN(C(=O)c1cc(C)ccc1-n1nccn1)[C@@H](C)Cn1cc(-c2ccc(F)cn2)cn1 [Example 38, N-{(2S)-1-[4-(5-Fluoropyridin-2-yl)-1H-pyrazol-1-yl]propan-2-yl}-N-(2-methoxyethyl)-5-methyl-2-(2H-1,2,3-triazol-2-yl)benzamide] |
| 21.8 nM | 1.1 nM | Cc1ccc(-n2nccn2)c(C(=O)N(CCO)[C@@H](C)Cn2ccc(-c3ccc(F)cc3)n2)c1 [Example 42, N-{(2S)-1-[3-(4-Fluorophenyl)-1H-pyrazol-1-yl]propan-2-yl}-N-(2-hydroxyethyl)-5-methyl-2-(2H-1,2,3-triazol-2-yl)benzamide] |
| 75.5 nM | 3.3 nM | Cc1ccc(-n2nccn2)c(C(=O)N(C)[C@@H](C)Cc2noc(-c3ccc(F)cn3)n2)c1 [Example 45, N-{(2S)-1-[5-(5-Fluoropyridin-2-yl)-1,2,4-oxadiazol-3-yl]propan-2-yl}-N,5-dimethyl-2-(2H-1,2,3-triazol-2-yl)benzamide] |
| 9.5 nM | 0.8 nM | CCN(C(=O)c1cc(C)ccc1-n1nccn1)[C@@H](C)Cc1noc(-c2ccc(F)cn2)n1 [Example 47, N-Ethyl-N-{(2S)-1-[5-(5-fluoropyridin-2-yl)-1,2,4-oxadiazol-3-yl]propan-2-yl}-5-methyl-2-(2H-1,2,3-triazol-2-yl) benzamide] |
| 32.2 nM | 1.1 nM | CCN(C(=O)c1nc(C)ccc1-n1nccn1)[C@@H](C)Cc1noc(-c2ccc(F)cc2)n1 [Example 49, N-Ethyl-N-{(2S)-1-[5-(4-fluorophenyl)-1,2,4-oxadiazol-3-yl]propan-2-yl}-6-methyl-3-(2H-1,2,3-triazol-2-yl)pyridine-2-carboxamide] |
| 376 nM | 9.2 nM | CCN(C(=O)c1nc(C)ccc1-c1ncccn1)[C@@H](C)Cc1noc(-c2ccc(F)cc2)n1 [Example 52, N-Ethyl-N-{(2S)-1-[5-(4-fluorophenyl)-1,2,4-oxadiazol-3-yl]propan-2-yl}-6-methyl-3-(pyrimidin-2-yl)pyridine-2-carboxamide] |
| 75.6 nM | 6.6 nM | CCN(C(=O)c1cc(F)ccc1-c1ncccn1)[C@@H](C)Cc1noc(-c2ccc(F)cc2)n1 [Example 53, N-Ethyl-5-fluoro-N-{(2S)-1-[5-(4-fluorophenyl)-1,2,4-oxadiazol-3-yl]propan-2-yl}-2-(pyrimidin-2-yl) benzamide] |
| 1080 nM | 5.1 nM | CCN(C(=O)c1cc(F)ccc1-n1nccn1)[C@@H](C)Cc1noc(-c2ccc(F)cn2)n1 [Example 57, N-Ethyl-5-fluoro-N-{(2S)-1-[5-(5-fluoropyridin-2-yl)-1,2,4-oxadiazol-3-yl]propan-2-yl}-2-(2H-1,2,3-triazol-2-yl) benzamide] |
